Measured values as given in PubChem BioAssay (NCI).
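These data come from cells grown in 96-well plates and exposed to compound for 48 hours at five concentrations. GI50 = concentration required for 50% inhibition of growth. TGI: concentration producing complete growth inhibition.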

What was measured:
Assay in all cases: NCI tumour cell line growth inhibition, 48 h
[1] = tested on: MDA-MB-231 breast
[2] = tested on: SK-MEL-2 melanoma
[3] = tested on: RXF 393 renal
[4] = tested on: RPMI-8226 leukemia
[5] = tested on: MCF7 breast
[6] = tested on: CCRF-CEM leukemia
[7] = tested on: ACHN renal
[8] = tested on: SF-539 CNS
[9] = tested on: MOLT-4 leukemia
[10] = tested on: HCT-116 colon
[11] = tested on: SN12C renal
[12] = tested on: HOP-62 NSCLC
[13] = tested on: HCT-15 colon
[14] = tested on: NCI-H522 lung
[15] = tested on: M14 melanoma
[16] = tested on: UACC-257 melanoma
[17] = tested on: DU-145 prostate
[18] = tested on: MALME-3M melanoma
[19] = tested on: A498 renal
[20] = tested on: OVCAR-8 ovarian
[21] = tested on: HOP-92 NSCLC
[22] = tested on: T-47D breast
[23] = tested on: NCI-H23 lung
[24] = tested on: IGROV1 ovarian
[25] = tested on: LOX IMVI melanoma
[26] = tested on: SW-620 colon
[27] = tested on: HS 578T breast
[28] = tested on: OVCAR-4 ovarian
[29] = tested on: SK-MEL-5 melanoma
[30] = tested on: KM12 colon
[31] = tested on: SR leukemia
[32] = tested on: U251 CNS
[33] = tested on: 786-0 renal
[34] = tested on: CAKI-1 renal
[35] = tested on: MDA-MB-435
[36] = tested on: NCI/ADR-RES ovarian
[37] = tested on: EKVX NSCLC
[38] = tested on: SNB-75 CNS
[39] = tested on: BT-549 breast
[40] = tested on: SF-295 CNS
[41] = tested on: NCI-H460 lung
[42] = tested on: SF-268 CNS
[43] = tested on: HT29 colon
[44] = tested on: SK-MEL-28 melanoma
[45] = tested on: OVCAR-3 ovarian
[46] = tested on: SNB-19 CNS
[47] = tested on: UO-31 renal
[48] = tested on: HCC-2998 colon
[49] = tested on: OVCAR-5 ovarian
[50] = tested on: UACC-62 melanoma
[51] = tested on: A549 NSCLC
[52] = tested on: PC-3 prostate
[53] = tested on: HL-60(TB) leukemia
[54] = tested on: TK-10 renal
[55] = tested on: K-562 leukemia
[56] = tested on: NCI-H226 lung
[57] = tested on: SK-OV-3 ovarian
[58] = tested on: COLO 205 colon

With CN1CCN(CCOc2ccc(-c3cnc4c(-c5ccc(F)cc5)cnn4c3)cc2)CC1 the GI50 [1] was 1.57 µM, the TGI [1] was 3.07 µM and the GI50 [2] was 2.09 µM. The TGI [2] was 4.31 µM, the GI50 [3] was 1.65 µM and the TGI [3] was 3.27 µM. The GI50 [4] was 1.67 µM, the TGI [4] was 4.67 µM and the GI50 [5] was 1.48 µM. It also gave a TGI [5] of 3.05 µM, a GI50 [6] of 1.55 µM and a TGI [6] of 3.82 µM. It also gave a GI50 [7] of 1.42 µM, a TGI [7] of 2.73 µM and a GI50 [8] of 1.27 µM. It also gave a TGI [8] of 2.57 µM, a GI50 [9] of 1.56 µM and a TGI [9] of 3.59 µM. The GI50 [10] was 1.55 µM, the TGI [10] was 3.05 µM and the GI50 [11] was 1.69 µM. The TGI [11] was 3.23 µM, the GI50 [12] was 1.85 µM and the TGI [12] was 3.81 µM. For the same compound, the GI50 [13] was 1.32 µM, the TGI [13] was 2.75 µM and the GI50 [14] was 1.87 µM. It also gave a TGI [14] of 3.94 µM, a GI50 [15] of 1.96 µM and a TGI [15] of 3.7 µM. For the same compound, the GI50 [16] was 2.11 µM, the TGI [16] was 4.42 µM and the GI50 [17] was 1.64 µM. The TGI [17] was 3.16 µM, the GI50 [18] was 1.62 µM and the TGI [18] was 3.13 µM. It also gave a GI50 [19] of 1.64 µM, a TGI [19] of 4.89 µM and a GI50 [20] of 2.14 µM. It also gave a TGI [20] of 5.08 µM, a GI50 [21] of 1.43 µM and a TGI [21] of 3.3 µM. It also gave a GI50 [22] of 1.49 µM, a TGI [22] of 3.86 µM and a GI50 [23] of 1.73 µM. It also gave a TGI [23] of 3.25 µM, a GI50 [24] of 1.63 µM and a TGI [24] of 3.3 µM. The GI50 [25] was 1.76 µM, the TGI [25] was 3.25 µM and the GI50 [26] was 1.89 µM. It also gave a TGI [26] of 3.56 µM, a GI50 [27] of 1.49 µM and a TGI [27] of 4.53 µM. For the same compound, the GI50 [28] was 1.43 µM, the TGI [28] was 3.61 µM and the GI50 [29] was 1.64 µM. For the same compound, the TGI [29] was 3.04 µM, the GI50 [30] was 1.06 µM and the TGI [30] was 2.36 µM. It also gave a GI50 [31] of 2.07 µM, a TGI [31] of 10.9 µM and a GI50 [32] of 1.39 µM. The TGI [32] was 2.94 µM, the GI50 [33] was 1.73 µM and the TGI [33] was 3.2 µM. For the same compound, the GI50 [34] was 1.52 µM, the TGI [34] was 2.89 µM and the GI50 [35] was 1.73 µM. For the same compound, the TGI [35] was 3.18 µM, the GI50 [36] was 2.2 µM and the TGI [36] was 4.88 µM. The GI50 [37] was 1.79 µM, the TGI [37] was 3.55 µM and the GI50 [38] was 1.34 µM. For the same compound, the TGI [38] was 3.32 µM, the GI50 [39] was 2.68 µM and the TGI [39] was 9.44 µM. The GI50 [40] was 1.73 µM, the TGI [40] was 3.23 µM and the GI50 [41] was 1.54 µM. The TGI [41] was 3.06 µM, the GI50 [42] was 2.03 µM and the TGI [42] was 5.31 µM. For the same compound, the GI50 [43] was 1.65 µM, the TGI [43] was 4.28 µM and the GI50 [44] was 1.87 µM. It also gave a TGI [44] of 3.62 µM, a GI50 [45] of 1.68 µM and a TGI [45] of 3.35 µM. The GI50 [46] was 1.66 µM, the TGI [46] was 3.39 µM and the GI50 [47] was 1.31 µM. For the same compound, the TGI [47] was 2.93 µM, the GI50 [48] was 1.77 µM and the TGI [48] was 3.45 µM. For the same compound, the GI50 [49] was 1.6 µM, the TGI [49] was 3.03 µM and the GI50 [50] was 1.78 µM. It also gave a TGI [50] of 3.36 µM, a GI50 [51] of 1.71 µM and a TGI [51] of 3.45 µM. It also gave a GI50 [52] of 1.7 µM, a TGI [52] of 3.82 µM and a GI50 [53] of 2.09 µM. It also gave a TGI [53] of 4.47 µM, a GI50 [54] of 1.82 µM and a TGI [54] of 3.5 µM. It also gave a GI50 [55] of 0.365 µM and a TGI [55] of 2.3 µM.
c1ccc2nc(OCCN3CC3)ccc2c1 was tested, and the GI50 [1] was 7.95 µM, the TGI [1] was 26.3 µM and the GI50 [2] was 13.5 µM. For the same compound, the TGI [2] was 31.6 µM, the GI50 [56] was 16.6 µM and the TGI [56] was 38.6 µM. It also gave a GI50 [57] of 16.8 µM, a TGI [57] of 33.6 µM and a GI50 [3] of 14.6 µM. For the same compound, the TGI [3] was 32.5 µM, the GI50 [4] was 3.94 µM and the TGI [4] was 26.7 µM. It also gave a GI50 [5] of 3.4 µM, a TGI [5] of 11.4 µM and a GI50 [6] of 4.4 µM. The TGI [6] was 60.5 µM, the GI50 [7] was 15 µM and the TGI [7] was 35.9 µM. The GI50 [8] was 21.5 µM, the TGI [8] was 47.1 µM and the GI50 [9] was 4.04 µM. It also gave a TGI [9] of 59 µM, a GI50 [10] of 2.39 µM and a TGI [10] of 15.5 µM. It also gave a GI50 [11] of 11.8 µM, a TGI [11] of 29.5 µM and a GI50 [12] of 15.2 µM. It also gave a TGI [12] of 34.1 µM, a GI50 [13] of 13.3 µM and a TGI [13] of 46.1 µM. For the same compound, the GI50 [14] was 1.71 µM, the TGI [14] was 4.04 µM and the GI50 [15] was 8.15 µM. The TGI [15] was 23.9 µM, the GI50 [16] was 16.5 µM and the TGI [16] was 32.8 µM. It also gave a GI50 [17] of 14.8 µM, a TGI [17] of 28 µM and a GI50 [18] of 16.6 µM. It also gave a TGI [18] of 43.6 µM, a GI50 [19] of 14.2 µM and a TGI [19] of 30 µM. It also gave a GI50 [20] of 14 µM, a TGI [20] of 31.4 µM and a GI50 [21] of 1.9 µM. For the same compound, the TGI [21] was 9.44 µM, the GI50 [22] was 12.4 µM and the TGI [22] was 30.6 µM. It also gave a GI50 [23] of 12.9 µM, a TGI [23] of 35.8 µM and a GI50 [24] of 2.24 µM. The TGI [24] was 10.8 µM, the GI50 [25] was 4.05 µM and the TGI [25] was over 100 µM. For the same compound, the GI50 [26] was 1.97 µM, the TGI [26] was 5.43 µM and the GI50 [27] was 20.3 µM. For the same compound, the TGI [27] was 62.2 µM, the GI50 [28] was 10.3 µM and the TGI [28] was 25.3 µM. For the same compound, the GI50 [58] was 1.98 µM, the TGI [58] was 5 µM and the GI50 [29] was 12.9 µM. For the same compound, the TGI [29] was 26.8 µM, the GI50 [30] was 4.37 µM and the TGI [30] was 16.5 µM. The GI50 [32] was 5.2 µM, the TGI [32] was 18.9 µM and the GI50 [33] was 14.3 µM. The TGI [33] was 37.3 µM, the GI50 [34] was 9.2 µM and the TGI [34] was 28.8 µM. For the same compound, the GI50 [35] was 3.31 µM, the TGI [35] was 17.9 µM and the GI50 [36] was 18.1 µM. The TGI [36] was 44.5 µM, the GI50 [37] was 12 µM and the TGI [37] was 33.4 µM. For the same compound, the GI50 [38] was 16.9 µM, the TGI [38] was 35.2 µM and the GI50 [39] was 20.7 µM. It also gave a TGI [39] of 37.7 µM, a GI50 [40] of 11.6 µM and a TGI [40] of 35.4 µM. It also gave a GI50 [41] of 4.21 µM, a TGI [41] of 20.9 µM and a GI50 [42] of 16 µM. The TGI [42] was 35.5 µM, the GI50 [44] was 14.5 µM and the TGI [44] was 29.2 µM. The GI50 [45] was 6.29 µM, the TGI [45] was 22.1 µM and the GI50 [46] was 15.7 µM. The TGI [46] was 43.6 µM, the GI50 [47] was 6.39 µM and the TGI [47] was 25 µM. For the same compound, the GI50 [48] was 2.31 µM, the TGI [48] was 5.53 µM and the GI50 [49] was 17.1 µM. The TGI [49] was 31.5 µM, the GI50 [50] was 13 µM and the TGI [50] was 34.1 µM. It also gave a GI50 [51] of 14.4 µM, a TGI [51] of 30.7 µM and a GI50 [52] of 10.4 µM. The TGI [52] was 25.2 µM, the GI50 [53] was 6.59 µM and the TGI [53] was 34.9 µM. The GI50 [54] was 4.89 µM, the TGI [54] was 23.1 µM and the GI50 [55] was 3.06 µM. The TGI [55] was 24 µM.
